This passage reports IC50 results from patent US20110190300A1, “AMIDE COMPOUNDS AND THE USE THEREOF” (priority 2007, published 2011).

The target of experiment [1] is T1, L-type calcium channel (LTCC) (Rattus norvegicus, UniProt P22002).
T1 construct: expressed in transfected cells; host or cells: HEK293, stably transfected (pcDNA6.2DEST α1c, pcDNA3.2DEST β1, pcDNA3.1-Zeo α2δ)
The experiment can be described thus: FLIPR calcium mobilization assay for L-type calcium channel. The format is cell-based. The settings on record: calcium mobilization in vitro assay; HEK293 cells stably expressing recombinant rat LTCC subunits (α1c, α2δ, β1), 90 mM KCl. On the procedure: Recombinant human embryonal kidney cells (HEK293, ATCC) stably transfected with either N-type calcium channel (NTCC) subunits (α1b, α2δ, and β3) or L-type calcium channel (LTCC) subunits (α1c, α2δ, and β1) were routinely cultured in growth medium consisting of Dulbecco's Modified Eagles Medium containing 10% FBS, 100 U/mL penicillin, 100 μg/mL streptomycin, 4 mM L-glutamine, 500 μg/mL geneticin (G418), 20 μg/mL Blasticidin S (InVivogen, San Diego, Calif.) and 500 μg/mL zeocin (InVivogen).
FLIPR Calcium Mobilization Assay for L-type Calcium Channel. One day prior to performing this assay, HEK293 cells stably expressing recombinant rat L-type calcium channel (LTCC) subunits (α1c, α2δ, and β1) were trypsinized, then seeded on poly-D-lysine-coated 96-well clear-bottom black plates (Becton Dickinson, Franklin Lakes, N.J.) at 75,000 cells/well. On the day of the assay, the plates were washed with LTCC wash buffer (127 mM NaCl, 2 mM MgCl2, 700 μM NaH2PO4, 5 mM CaCl2, 5 mM NaHCO3, 8 mM HEPES, 10 mM glucose, pH 7.4), then loaded with 0.1 mL of LTCC wash buffer containing Fluo-4 (3 μM final concentration, Molecular Probes, Eugene, Oreg.). After 1 hour, the cells were washed with 0.1 mL LTCC wash buffer and resuspended in 0.05 mL LTCC assay buffer (same composition as LTCC wash buffer). Plates were then transferred to a FLIPR^96 for assay. The FLIPR measured basal Fluo-4 fluorescence for 15 seconds, then added 0.05 mL of each compound tested diluted in LTCC assay buffer at final concentrations ranging from about 846 pM to about 17 μM. Fluo-4 fluorescence was then measured for 5 minutes. 0.1 mL KCl agonist dissolved in LTCC assay buffer was then added to the cells to produce a final concentration of 90 mM KCl, and fluorescence was measured for another 45 seconds. Data were collected over the entire time course and analyzed using Excel, Graph Pad Prism, or an in-house regression analysis software.

For experiment [2], the target named is T2, N-type calcium channel (NTCC) (Homo sapiens, UniProt Q00975).
T2 construct: host or cells: IMR32 cells differentiated with dibutyryl cyclic AMP and bromodeoxyuridine
The experiment can be described thus: FLIPR calcium mobilization assay for N-type calcium channel. Conditions: calcium mobilization in vitro assay; differentiated IMR32 cells, 5 μM nitrendipine, 90 mM KCl. It counts as cell-based. On the procedure: Cell maintenance and differentiation. Unless noted otherwise, cell culture reagents were purchased from Mediatech of Herndon, Md. IMR32 cells (American Type Culture Collection, ATCC, Manassas, Va.) were routinely cultured in growth medium consisting of minimum essential medium containing 10% fetal bovine serum (FBS, Hyclone, Logan, Utah), 100 U/mL penicillin, 100 μg/mL streptomycin, 2 mM L-glutamine, 1 mM sodium pyruvate, and 1× MEM non-essential amino acids. 80-90% confluent flasks of cells were differentiated using the following differentiation medium: Growth medium plus 1 mM dibutyryl cyclic AMP (Sigma, St. Louis, Mo.), and 2.5 μM bromodeoxyuridine (Sigma). Cells were differentiated for 8 days by replacing differentiation medium every 2-3 days.
FLIPR Calcium Mobilization Assay for N-type Calcium Channel. One day prior to performing this assay, differentiated IMR32 cells were treated with 1× CellStripper, and seeded on poly-D-lysine-coated 96-well clear-bottom black plates (Becton Dickinson, Franklin Lakes, N.J.) at 200,000 cells/well. On the day of the assay, the cell plates were washed with IMR32 buffer (127 mM NaCl, 1 mM KCl, 2 mM MgCl2, 700 μM NaH2PO4, 5 mM CaCl2, 5 mM NaHCO3, 8 mM HEPES, 10 mM glucose, pH 7.4), then pre-stimulated with KCl and loaded as follows: 0.05 mL of IMR32 buffer, 0.05 mL of each compound tested diluted in IMR32 buffer containing 20 μM nitrendipine (Sigma), and 0.1 mL KCl dissolved in IMR32 buffer, plus Fluo-4 were added (3 μM final concentration, Molecular Probes, Eugene, Oreg.). Final test compound concentrations ranged from about 846 pM to about 17 μM, final nitrendipine concentration was 5 μM, and final KCl concentration was 90 mM. After 1 hour, the cells were washed twice with 0.05 mL of each compound tested in nitrendipine-containing IMR32 buffer (no KCl or Fluo-4), and then replaced with 0.1 mL of each compound tested in nitrendipine-containing IMR32 buffer. Plates were then transferred to a Fluorimetric Imaging Plate Reader (FLIPR^96, Molecular Devices, Inc., Sunnyvale, Calif.) for assay. The FLIPR measured basal Fluo-4 fluorescence for 315 seconds (i.e., 5 minutes and 15 seconds), then added 0.1 mL KCl agonist dissolved in IMR32 buffer and measured fluorescence for another 45 seconds. Final test compound concentrations on the cells after FLIPR read ranged from about 846 pM to about 17 μM, final nitrendipine concentration was 5 μM, and final KCl concentration was 90 mM. Data were collected over the entire time course and analyzed using Excel, Graph Pad Prism (version 3.02, Graph Pad, San Diego, Calif.), or an in-house non-linear regression analysis software.

T1 sequence (P22002 whole entry): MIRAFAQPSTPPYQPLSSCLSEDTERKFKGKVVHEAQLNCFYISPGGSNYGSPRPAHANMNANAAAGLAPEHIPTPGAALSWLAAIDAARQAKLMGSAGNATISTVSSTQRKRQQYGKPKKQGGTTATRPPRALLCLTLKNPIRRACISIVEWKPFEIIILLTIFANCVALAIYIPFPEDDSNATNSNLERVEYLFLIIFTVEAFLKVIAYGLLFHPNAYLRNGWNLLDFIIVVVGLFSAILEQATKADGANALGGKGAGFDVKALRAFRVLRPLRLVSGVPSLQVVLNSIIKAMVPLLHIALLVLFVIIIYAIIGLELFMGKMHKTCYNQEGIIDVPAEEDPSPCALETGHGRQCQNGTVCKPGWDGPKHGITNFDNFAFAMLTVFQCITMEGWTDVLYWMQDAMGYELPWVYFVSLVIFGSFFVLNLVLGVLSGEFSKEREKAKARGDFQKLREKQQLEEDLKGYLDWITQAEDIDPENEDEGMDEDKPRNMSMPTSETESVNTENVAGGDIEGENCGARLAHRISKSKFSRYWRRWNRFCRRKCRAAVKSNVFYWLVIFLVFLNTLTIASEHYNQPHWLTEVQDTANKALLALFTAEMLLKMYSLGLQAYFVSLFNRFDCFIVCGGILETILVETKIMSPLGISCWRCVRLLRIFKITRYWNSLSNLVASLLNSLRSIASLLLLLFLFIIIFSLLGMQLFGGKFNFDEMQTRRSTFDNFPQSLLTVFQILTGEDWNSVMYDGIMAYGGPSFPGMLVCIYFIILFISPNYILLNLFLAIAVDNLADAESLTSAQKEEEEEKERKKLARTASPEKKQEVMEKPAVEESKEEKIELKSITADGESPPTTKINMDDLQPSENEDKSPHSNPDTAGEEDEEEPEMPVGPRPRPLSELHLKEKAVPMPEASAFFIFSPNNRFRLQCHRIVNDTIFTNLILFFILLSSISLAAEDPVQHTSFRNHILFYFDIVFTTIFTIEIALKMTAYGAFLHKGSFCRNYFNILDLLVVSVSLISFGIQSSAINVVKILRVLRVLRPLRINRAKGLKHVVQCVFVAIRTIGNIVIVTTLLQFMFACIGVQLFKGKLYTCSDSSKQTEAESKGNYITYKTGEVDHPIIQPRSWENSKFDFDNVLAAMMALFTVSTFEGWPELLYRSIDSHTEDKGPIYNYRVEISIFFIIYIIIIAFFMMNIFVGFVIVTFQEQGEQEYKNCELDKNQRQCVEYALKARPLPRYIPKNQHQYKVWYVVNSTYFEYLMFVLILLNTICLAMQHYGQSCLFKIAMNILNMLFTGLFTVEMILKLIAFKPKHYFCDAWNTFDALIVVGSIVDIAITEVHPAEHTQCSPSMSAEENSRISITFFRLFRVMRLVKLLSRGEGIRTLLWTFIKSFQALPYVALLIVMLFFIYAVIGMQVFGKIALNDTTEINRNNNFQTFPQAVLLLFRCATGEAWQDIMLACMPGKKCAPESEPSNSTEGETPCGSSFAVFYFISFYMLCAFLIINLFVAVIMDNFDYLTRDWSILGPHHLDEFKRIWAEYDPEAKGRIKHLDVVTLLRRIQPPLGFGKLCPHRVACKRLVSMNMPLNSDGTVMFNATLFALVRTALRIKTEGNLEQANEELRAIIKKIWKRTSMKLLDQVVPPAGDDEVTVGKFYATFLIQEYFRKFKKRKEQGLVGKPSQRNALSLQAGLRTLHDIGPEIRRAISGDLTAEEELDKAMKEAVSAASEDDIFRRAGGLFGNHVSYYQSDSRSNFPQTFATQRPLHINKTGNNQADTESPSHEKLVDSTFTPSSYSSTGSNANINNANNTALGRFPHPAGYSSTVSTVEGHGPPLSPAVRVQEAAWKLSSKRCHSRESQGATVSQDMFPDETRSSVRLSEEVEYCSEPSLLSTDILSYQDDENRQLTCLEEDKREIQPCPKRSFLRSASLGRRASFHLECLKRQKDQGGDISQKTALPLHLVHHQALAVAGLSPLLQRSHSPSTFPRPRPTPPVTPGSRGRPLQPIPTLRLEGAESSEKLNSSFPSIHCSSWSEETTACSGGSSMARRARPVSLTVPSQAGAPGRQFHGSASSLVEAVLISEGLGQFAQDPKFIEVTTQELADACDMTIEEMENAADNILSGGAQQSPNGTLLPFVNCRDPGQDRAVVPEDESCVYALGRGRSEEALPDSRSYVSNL
T1 sequence (P54290 25-944 partner limits assumed): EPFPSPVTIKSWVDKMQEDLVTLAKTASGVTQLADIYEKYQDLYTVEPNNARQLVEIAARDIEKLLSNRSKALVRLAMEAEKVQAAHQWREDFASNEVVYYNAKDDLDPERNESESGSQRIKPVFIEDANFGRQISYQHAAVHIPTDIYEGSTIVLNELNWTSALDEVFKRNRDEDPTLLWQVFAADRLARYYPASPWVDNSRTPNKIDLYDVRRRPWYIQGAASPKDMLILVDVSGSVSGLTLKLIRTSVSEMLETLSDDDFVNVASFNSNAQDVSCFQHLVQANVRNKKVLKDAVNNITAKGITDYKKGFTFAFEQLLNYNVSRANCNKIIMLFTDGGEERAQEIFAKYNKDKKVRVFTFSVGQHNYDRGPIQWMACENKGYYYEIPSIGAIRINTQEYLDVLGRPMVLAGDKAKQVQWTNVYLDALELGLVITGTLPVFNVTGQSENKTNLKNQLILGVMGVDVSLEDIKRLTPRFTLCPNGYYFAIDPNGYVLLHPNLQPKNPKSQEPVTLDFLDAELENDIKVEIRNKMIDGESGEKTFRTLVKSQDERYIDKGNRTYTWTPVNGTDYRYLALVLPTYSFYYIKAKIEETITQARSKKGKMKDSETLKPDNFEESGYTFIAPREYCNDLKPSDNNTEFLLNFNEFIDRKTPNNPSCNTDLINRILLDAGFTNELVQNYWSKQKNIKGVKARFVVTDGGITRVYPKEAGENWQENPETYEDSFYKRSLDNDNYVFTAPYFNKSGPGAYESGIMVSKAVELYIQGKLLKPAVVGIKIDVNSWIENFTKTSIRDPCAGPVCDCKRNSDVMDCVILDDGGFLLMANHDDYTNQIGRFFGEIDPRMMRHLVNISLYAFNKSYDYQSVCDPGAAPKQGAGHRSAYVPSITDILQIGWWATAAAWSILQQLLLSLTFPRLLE
T1 sequence (P54290 945-1091 partner limits assumed): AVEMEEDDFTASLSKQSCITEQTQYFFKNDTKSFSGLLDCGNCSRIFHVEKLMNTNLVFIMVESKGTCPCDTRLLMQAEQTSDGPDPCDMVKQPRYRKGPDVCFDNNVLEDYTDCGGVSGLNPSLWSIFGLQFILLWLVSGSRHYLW
T1 sequence (P54283 whole entry partner): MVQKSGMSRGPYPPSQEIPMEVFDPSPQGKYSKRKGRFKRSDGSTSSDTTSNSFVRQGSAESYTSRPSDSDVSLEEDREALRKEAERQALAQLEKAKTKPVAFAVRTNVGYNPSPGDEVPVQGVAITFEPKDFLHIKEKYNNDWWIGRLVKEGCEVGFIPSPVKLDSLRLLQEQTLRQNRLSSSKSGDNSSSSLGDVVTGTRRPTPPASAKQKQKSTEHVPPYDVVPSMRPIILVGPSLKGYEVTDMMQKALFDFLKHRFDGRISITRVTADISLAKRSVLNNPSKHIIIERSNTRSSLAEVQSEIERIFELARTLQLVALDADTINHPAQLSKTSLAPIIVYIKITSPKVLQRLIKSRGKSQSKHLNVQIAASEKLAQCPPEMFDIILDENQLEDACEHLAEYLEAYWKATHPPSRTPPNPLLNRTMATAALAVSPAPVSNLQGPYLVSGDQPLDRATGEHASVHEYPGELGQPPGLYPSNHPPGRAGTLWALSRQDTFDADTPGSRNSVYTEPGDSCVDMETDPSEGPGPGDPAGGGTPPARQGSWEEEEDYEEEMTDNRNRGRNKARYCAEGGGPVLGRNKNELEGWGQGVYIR

For the compound `O=C(CON=C1CCN(S(=O)(=O)c2ccc(OC(F)(F)F)cc2)CC1)Nc1ccccc1` [Example 2, N-Phenyl-2-[1-(4-trifluoromethoxybenzenesulfonyl)piperidin-4-ylideneaminooxy]acetamide], the IC50 in experiment [1] was greater than 20000 nM; in experiment [2], 420 nM.
In the case of `CN(C(=O)CON=C1CCN(S(=O)(=O)c2ccc(OC(F)(F)F)cc2)CC1)c1ccccc1` [Example 3, N-Methyl-N-phenyl-2-[1-(4-trifluoromethoxybenzenesulfonyl)piperidin-4-ylideneaminooxy]acetamide], the IC50 in experiment [1] was determined as 8500 nM; in experiment [2], 1200 nM.
As for `O=C(CON=C1CCN(S(=O)(=O)c2ccc(OC(F)(F)F)cc2)CC1)NCc1ccccc1` [Example 98, N-Benzyl-2-[1-(4-trifluoromethoxybenzenesulfonyl)piperidin-4-ylideneaminooxy]acetamide], the 50% inhibitory concentration (IC50) in experiment [1] was greater than 20000 nM; in experiment [2], 1100 nM.
The matching figures for `CC(C)CNC(=O)CON=C1CCN(S(=O)(=O)c2ccc(OC(F)(F)F)cc2)CC1` [Example 99, N-Isobutyl-2-[1-(4-trifluoromethoxybenzenesulfonyl)piperidin-4-ylideneaminooxy]acetamide]: greater than 20000 nM and 300 nM.
As for `O=C(CON=C1CCN(S(=O)(=O)c2ccc(OC(F)(F)F)cc2)CC1)NC1CCCCC1` [Example 100, N-Cyclohexyl-2-[1-(4-trifluoromethoxybenzenesulfonyl)piperidin-4-ylideneaminooxy]acetamide], the IC50 is greater than 20000 nM in experiment [1] and 410 nM in experiment [2].
As for `CCCNC(=O)CON=C1CCN(S(=O)(=O)c2ccc(OC(F)(F)F)cc2)CC1` [Example 102, N-Propyl-2-[1-(4-trifluoromethoxybenzenesulfonyl)piperidin-4-ylideneaminooxy]acetamide], the IC50 was greater than 20000 nM in experiment [1] and 210 nM in experiment [2].
As for `O=C(Nc1ccc(F)cc1)ON=C1CCN(S(=O)(=O)c2cccc(C(F)(F)F)c2)CC1` [Example 104, 1-(3-(trifluoromethyl)phenylsulfonyl)piperidin-4-one O-4-fluorophenylcarbamoyl oxime], the IC50 in experiment [1] is greater than 20000 nM; in experiment [2], 240 nM.
For `O=C(Nc1ccc(F)cc1)ON=C1CCN(C(=O)Oc2cccc(C(F)(F)F)c2)CC1` [Example 131, 3-(trifluoromethyl)phenyl 4-(4-fluorophenylcarbamoyloxyimino)piperidine-1-carboxylate], the 50% inhibitory concentration (IC50) in experiment [2] came out at 1800 nM.
